Reference: patent publication US10266806B2, “Stem cell-derived hepatocytes in co-culture and uses thereof” (Colorado State University Research Foundation, priority 2014, dated 2019)
Structures can show the parent of a compound that is named as a salt. Where two headings read alike, the source gives them in different places. Each block holds one molecule with its values, some of them ahead of it.

What was measured:
[1] = total human plasma concentration; cited from earlier work
iHeps in iMPCCs [2] = test system: iHeps in iMPCCs
[3] = test system: primary hepatocytes (HUM4011)
[4] = test system: primary human hepatocytes in MPCCs; settings: (ref 19), cited from earlier work; for TC50 in MPCCs ATP: concentration at which activity decreases by 50% of DMSO-only controls
[5] = negative number: withdrawn from the market; higher positive numbers: greater DILI concern; cited from earlier work
iHeps in iMPCCs [6] = assay: Drug toxicity screening in iMPCCs (albumin, ATP, urea; binary decision and TC50)

Structure (SMILES): C#CC1(O)CC[C@H]2[C@@H]3CCC4=CC(=O)CC[C@@H]4[C@H]3CC[C@@]21CC (mixture of isomers) [Norgestrel]
Cmax [1]: 0.009 µM

albumin production in iMPCCs (iMPCCs): declined significantly
urea production in iMPCCs (iMPCCs): declined significantly
Structure (SMILES): CC(=O)Nc1ccc(O)cc1 [Acetaminophen]

Model predictions iMPCC (binary decision) (iHeps in iMPCCs [2]): −
Structure (SMILES): CC(=O)Nc1nnc(S(N)(=O)=O)s1 [Acetazolamide]
toxicity call in another donor of primary hepatocytes [3]: false negative
Cmax [1]: 135 µM

Model predictions iMPCC (binary decision) (iHeps in iMPCCs [2]): −
Model predictions iCC (binary decision) (iHeps in iCCs): −
albumin production in iMPCCs (iMPCCs): minimally affected
urea production in iMPCCs (iMPCCs): minimally affected
Structure (SMILES): CC(=O)Oc1ccccc1C(=O)O [Aspirin]
Cmax [1]: 5.53 µM

Structure (SMILES): CCc1oc2ccccc2c1C(=O)c1cc(Br)c(O)c(Br)c1 [Benzbromarone]
TC50 in MPCCs Albumin [4]: 31.3 µM
TC50 in MPCCs Urea [4]: 27.9 µM
TC50 in MPCCs ATP [4]: 15.1 µM
DILI Sev (DILI severity scores from the LTKB of the FDA) [5]: −2
Cmax [1]: 4.36 µM

Model predictions iMPCC (binary decision) (iHeps in iMPCCs [2]): −
Structure (SMILES): CNCCc1ccccn1.Cl.Cl [Betahistine 2HCl]
DILI Sev (DILI severity scores from the LTKB of the FDA) [5]: 6
Cmax [1]: 0.004 µM

Structure (SMILES): O=C1CC2(CCCC2)CC(=O)N1CCCCN1CCN(c2ncccn2)CC1 [Buspirone]
DILI Sev (DILI severity scores from the LTKB of the FDA) [5]: 3
Cmax [1]: 0.005 µM

Structure (SMILES): C[C@H](CS)C(=O)N1CCC[C@H]1C(=O)O [Captopril]
Cmax [1]: 4.28 µM

Model predictions iMPCC (binary decision) (iHeps in iMPCCs [2]): −
Structure (SMILES): CCCCCCCCCCCCCCCC(=O)OC[C@@H](NC(=O)C(Cl)Cl)[C@H](O)c1ccc([N+](=O)[O-])cc1 [Chloramphenicol palmitate]
Cmax [1]: 20 µM

Structure (SMILES): O=C(O)c1cn(C2CC2)c2cc(N3CCNCC3)c(F)cc2c1=O [Ciprofloxacin HCl]
TC50 in MPCCs ATP (iHeps in iMPCCs [2]; human, 6 days): 804.2 µM
TC50 in MPCCs Albumin (iHeps in iMPCCs [2]; human, 6 days): 525.3 µM
TC50 in MPCCs Urea (iHeps in iMPCCs [2]; human, 6 days): 326.3 µM

Model predictions iMPCC (binary decision) (iHeps in iMPCCs [2]): −
Structure (SMILES): CCN(CC)CCOc1ccc(C(=C(Cl)c2ccccc2)c2ccccc2)cc1 [Clomiphene citrate]
Cmax [1]: 0.022 µM

Structure (SMILES): CN(C)CCCN1c2ccccc2CCc2ccc(Cl)cc21 [Clomipramine]
TC50 in MPCCs Albumin (iHeps in iMPCCs [2]; human, 6 days): 9.4 µM
TC50 in MPCCs Urea (iHeps in iMPCCs [2]; human, 6 days): 13.8 µM
TC50 in MPCCs Albumin [4]: 9.4 µM
TC50 in MPCCs Urea [4]: 9.9 µM
TC50 in MPCCs ATP [4]: 12.0 µM

Structure (SMILES): O=P1(N(CCCl)CCCl)NCCCO1 (centres unmarked) [Cyclophosphamide]
TC50 in MPCCs Albumin [4]: 1449.4 µM
TC50 in MPCCs Urea [4]: 1746.0 µM
TC50 in MPCCs ATP [4]: 6165.0 µM
Cmax [1]: 265 µM
TC50 in MPCCs Albumin (iHeps in iMPCCs [6]): 18670.7 µM

Model predictions iCC (binary decision) (iHeps in iCCs): −
Structure (SMILES): CC(=O)O[C@]1(C(C)=O)CC[C@H]2[C@@H]3C=C(Cl)C4=CC(=O)[C@@H]5C[C@@H]5[C@]4(C)[C@H]3CC[C@@]21C [Cyproterone acetate]
toxicity call in iMPCCs / iHeps (iHeps in iMPCCs [2]): toxic
TC50 in MPCCs Albumin (iHeps in iMPCCs [2]; human, 6 days): 51.0 µM
TC50 in MPCCs Urea (iHeps in iMPCCs [2]; human, 6 days): 33.1 µM
toxicity call in iCCs (iHeps in iCCs): non-toxic
TC50 in MPCCs Urea [4]: 41.0 µM
TC50 in MPCCs ATP [4]: 39.1 µM
Cmax [1]: 0.656 µM

Structure (SMILES): C#C[C@]1(O)CC[C@H]2[C@@H]3CCC4=Cc5oncc5C[C@]4(C)[C@H]3CC[C@@]21C [Danazol]
Cmax [1]: 0.074 µM

Model predictions iMPCC (binary decision) (iHeps in iMPCCs [2]): −
Structure (SMILES): Nc1ccc(S(=O)(=O)c2ccc(N)cc2)cc1 [Dapsone]
toxicity call in iMPCCs / iHeps (iHeps in iMPCCs [2]): false negative result
toxicity call in another donor of primary hepatocytes [3]: false negative
Cmax [1]: 6.01 µM

Model predictions iMPCC (binary decision) (iHeps in iMPCCs [2]): −
Model predictions iCC (binary decision) (iHeps in iCCs): −
Structure (SMILES): C[C@@H]1C[C@H]2[C@@H]3CCC4=CC(=O)C=C[C@]4(C)[C@@]3(F)[C@@H](O)C[C@]2(C)[C@@]1(O)C(=O)CO [Dexamethasone]
DILI Sev (DILI severity scores from the LTKB of the FDA) [5]: 3
Cmax [1]: 0.224 µM

Structure (SMILES): O=C(O)Cc1ccccc1Nc1c(Cl)cccc1Cl [Diclofenac]
TC50 in MPCCs Albumin [4]: 141.9 µM
TC50 in MPCCs Urea [4]: 206.2 µM
TC50 in MPCCs ATP [4]: 638.4 µM

Structure (SMILES): C[C@]12CC[C@@H]3c4ccc(O)cc4CC[C@H]3[C@@H]1CCC2=O [Estrone]
Cmax [1]: 0.022 µM

Structure (SMILES): CC(C(=O)O)c1ccc(-c2ccccc2)c(F)c1 (centres unmarked) [Flurbiprofen]
comparison of urea TC50 values, iHeps versus primary hepatocytes (iHeps in iMPCCs [2]; human, 6 days): higher TC50 in iHeps
TC50 in MPCCs Albumin [4]: 2406.8 µM
TC50 in MPCCs Urea [4]: 2459.0 µM
TC50 in MPCCs ATP [4]: 3351.1 µM
DILI Sev (DILI severity scores from the LTKB of the FDA) [5]: 3
Cmax [1]: 57.4 µM
TC50 in MPCCs Albumin (iHeps in iMPCCs [6]): 5683.4 µM

Structure (SMILES): NC(=O)NO [Hydroxyurea]
TC50 in MPCCs ATP (iHeps in iMPCCs [2]; human, 6 days): 49358.3 µM
TC50 in MPCCs Albumin (iHeps in iMPCCs [2]; human, 6 days): 18398.4 µM
TC50 in MPCCs Albumin [4]: 28616.2 µM
TC50 in MPCCs Urea [4]: 19647.8 µM
TC50 in MPCCs ATP [4]: 7407.0 µM
Cmax [1]: 794 µM

Structure (SMILES): CN(C)CCCN1c2ccccc2CCc2ccccc21 [Imipramine HCl]
DILI Sev (DILI severity scores from the LTKB of the FDA) [5]: 3
